In the first assay the target is T1, BRD4 BD2 (Homo sapiens, UniProt O60885, Y97A).
T1 construct: BRD4 (1-477) (Y97A) and (Y390A); made in house; host or cells: E. coli (pET15b vector)
The assay is described as follows: BRD4 BD2 TR-FRET competition assay (mutant tandem bromodomain). The assay is classed as binding. The following applies: read-out: pIC50 in the BRD4 BD2 assay (converted). The procedure:
Bromodomain binding was assessed utilising a time resolved fluorescent resonance energy transfer (TR-FRET) competition assay. To enable this approach a known, high affinity, pan-BET interacting small molecule was labelled with Alexa Fluor® 647, which is a far-red-fluorescent dye (Reference Compound X). Reference Compound X acts as a reporter of bromodomain binding and is the acceptor fluorophore component of the TR-FRET pair. Europium chelate, conjugated to an anti-6*His antibody, was utilised as the donor fluorophore in the TR-FRET pair. […] A TR-FRET signal is generated when the donor and acceptor fluorophores are in close proximity, between 20-80 Å, which is enabled in this assay by binding of Reference Compound X to the bromodomain protein.
Assay Principle: In order to generate a TR-FRET signal, donor fluorophore is excited by a laser at λ337 nm, which subsequently leads to emission at λ618 nm. If the acceptor fluorophore is in close proximity then energy transfer can occur, which leads to emission of Alexa Fluor® 647 at λ665 nm. In the presence of competitor compound, Reference Compound X can be displaced from binding to the bromodomain. If displacement occurs, the acceptor fluorophore is no longer in proximity to the donor fluorophore, which prevents fluorescent energy transfer and, subsequently, a loss of Alexa Fluor®647 emission at λ665 nm.
(§1) The competition of the compounds of formula (I) with Reference Compound X for binding to the BET family (BRD2, BRD3, BRD4 and BRDT) was assessed using protein truncates spanning both bromodomain 1 (BD1) and bromodomain 2 (BD2). In order to monitor differential binding to either BD1 or BD2, single residue mutations of key tyrosines to alanine were made in the acetyl lysine binding pockets. To validate this approach, a double residue mutant tandem domain protein was produced for each of the BET family members. Utilising a Fluorescence Polarisation approach, binding affinities for each of the single and double mutants for Reference Compound X were determined.
Final purification was completed by Superdex 200 prep grade size exclusion column. Purified protein was stored at −80° C. in 20 mM HEPES pH 7.5 and 100 mM NaCl.
Protocol for Bromodomain BRD2, 3, 4 and T, BD1+BD2 mutant TR-FRET competition assays: All assay components were dissolved in an assay buffer composing of 50 mM HEPES pH7.4, 50 mM NaCl, 5% Glycerol, 1 mM DTT and 1 mM CHAPS. […] The solution containing bromodomain and Reference Compound X was added to dose response dilutions of test compound or DMSO vehicle (a maximum of 0.5% DMSO is used in this assay) in Greiner 384 well black low volume microtitre plates and subsequently incubated for 30 minutes at rt. An equal volume of 3 nM of anti-6*His Europium chelate was added to all wells, followed by a further 30 minute incubation at rt. TR-FRET was detected using a Perkin Elmer Multimode plate reader, by exciting the donor fluorophore at λ337 nm and subsequently, after a delay of 50 μsecs, measuring emission of the donor and acceptor fluorophores at λ615 nm and λ665 nm, respectively. In order to control these assays, 16 replicates each of uninhibited (DMSO vehicle) and inhibited (10*IC50 concentrations of Example 11 of WO 2011/054846A1) TR-FRET assays were included on every microtitre plate.
cA four parameter curve fit of the following form was then applied:
y=a+((b−a)/(1+(10^x/10^c)^d) • Where ‘a’ is the minimum, ‘b’ is the […], ‘c’ is the pIC50 and ‘d’ is the […].
Those of skill in the art will recognise that in vitro binding assays and cell-based assays for functional activity are subject to experimental variability. Accordingly, it is to be understood that the pIC50 values given below are exemplary only. pIC50 values are expressed as log10 units.
(In general: In TR-FRET formats the signal depends on donor and acceptor labels being close together.)
On to `CNC(=O)c1cc(C(=O)N[C@H]2CC[C@H](O)CC2)c([C@@H](C)c2ccc(OC)cc2)o1` (single isomer, unassigned) [Example 102, N^4-((1r,4S)-4-Hydroxycyclohexyl)-5-((S*)-1-(4-methoxyphenyl)ethyl)-N^2-methylfuran-2,4-dicarboxamide], for which the IC50 is 1 to 10 µM.
In the case of `CNC(=O)c1cc(C(=O)N[C@H]2CC[C@H](O)CC2)c([C@@H](CO)c2ccccc2)o1` (single isomer, unassigned) [Example 101, 5-((R*)-2-Hydroxy-1-phenylethyl)-N^4-((1r,4R)-4-hydroxycyclohexyl)-N^2-methylfuran-2,4-dicarboxamide], the IC50 was 1 to 10 µM.
With `CNC(=O)c1cc(C(=O)N[C@H]2C[C@@H]2C)c(C(C)c2ccccc2)o1` (single isomer, unassigned) [Example 96, N^2-methyl-N^4-((1S,2S)-2-Methylcyclopropyl)-5-((S*)-1-phenylethyl)furan-2,4-dicarboxamide], the IC50 is 1 to 10 µM.
Turning to `CNC(=O)c1cc(C(=O)N[C@H]2CC[C@H](O)CC2)c([C@@H](C)c2ccc(OC)c(OC)c2)o1` (single isomer, unassigned) [Example 106, 5-((S*)-1-(3,4-Dimethoxyphenyl)ethyl)-N^4-((1r,4S)-4-hydroxycyclohexyl)-N^2-methylfuran-2,4-dicarboxamide], the IC50 was 1 to 10 µM.
Regarding `CNC(=O)c1cc(C(=O)N[C@H]2[C@@H]3COC[C@@H]32)c([C@H](C)c2cccc(Cl)c2)o1` (single isomer, unassigned) [Example 89, N^4-((1R,5S,6r)-3-Oxabicyclo[3.1.0]hexan-6-yl)-5-((R*)-1-(3-chlorophenyl)ethyl)-N^2-methylfuran-2,4-dicarboxamide], the IC50 is 1 to 10 µM.
`CNC(=O)c1cc(C(=O)N[C@H]2CC[C@H](O)CC2)c([C@@H](C)c2cc(Cl)cc(OC)c2)o1` (single isomer, unassigned) [Example 94, 5-((S*)-1-(3-Chloro-5-methoxyphenyl)ethyl)-N^4-((1r,4S)-4-hydroxycyclohexyl)-N^2-methylfuran-2,4-dicarboxamide]: the IC50 is 1 to 10 µM.
The same measure, in the same setting: the result for `CNC(=O)c1cc(C(=O)N[C@H]2[C@@H]3COC[C@@H]32)c([C@H](CC#N)c2cccc(Cl)c2)o1` (single isomer, unassigned) [Example 88, N^4-((1R,5S,6r)-3-Oxabicyclo[3.1.0]hexan-6-yl)-5-((R*)-1-(3-chlorophenyl)-2-cyanoethyl)-N^2-methylfuran-2,4-dicarboxamide] reads 1 to 10 µM.
As to `CNC(=O)c1cc(C(=O)N[C@H]2CC[C@H](O)CC2)c([C@@H](OC)c2ccccc2)o1` (single isomer, unassigned) [Example 108, N^4-((1r,4S)-4-Hydroxycyclohexyl)-5-((S*)-methoxy(phenyl)methyl)-N^2-methylfuran-2,4-dicarboxamide], the IC50 is 1 to 10 µM.
Consider `CNC(=O)c1cc(C(=O)N[C@H]2CC[C@H](O)CC2)c([C@@H](C)c2ccc(OC)c(Cl)c2)o1` (single isomer, unassigned) [Example 95, 5-((S*)-1-(3-Chloro-4-methoxyphenyl)ethyl)-N^4-((1r,4S)-4-hydroxycyclohexyl)-N^2-methylfuran-2,4-dicarboxamide], for which the IC50 was 1 to 10 µM.
Consider `CNC(=O)c1cc(C(=O)NCC2CC2)c([C@@H](C)c2ccccc2)o1` [Example 104, (S)-N^4-(Cyclopropylmethyl)-N^2-methyl-5-(1-phenylethyl)furan-2,4-dicarboxamide], for which the IC50 is 1 to 10 µM.
In the case of `CNC(=O)c1cc(C(=O)N[C@H]2CC[C@H](O)CC2)c([C@@H](C)c2ccc(C)c(Cl)c2)o1` (single isomer, unassigned) [Example 98, 5-((S*)-1-(3-Chloro-4-methylphenyl)ethyl)-N^4-((1r,4S)-4-hydroxycyclohexyl)-N^2-methylfuran-2,4-dicarboxamide], the IC50 was 1 to 10 µM.
The same measure, in the same setting: as for `CNC(=O)c1cc(C(=O)N[C@H]2CC[C@H](O)CC2)c([C@@H](OC)c2cccc(Cl)c2)o1` (single isomer, unassigned) [Example 93, 5-((S*)-(3-Chlorophenyl)(methoxy)methyl)-N^4-((1r,4S)-4-hydroxycyclohexyl)-N^2-methylfuran-2,4-dicarboxamide], the figure is 1 to 10 µM.

The subject of another assay is BET family (BRD2, BRD3, BRD4 and BRDT) tandem bromodomain proteins. In words: Fluorescence Polarisation binding of Reference Compound X to single and double mutant tandem BET proteins. Particulars: compared with the corresponding non-mutated BET protein. Also on record: species or system Human. The procedure:
as §1, with “determined. […] The affinities of the single mutated bromdomain tandem proteins for Reference Compound X were equi-potent with the corresponding non-mutated BET protein. […] In the TR-FRET competition assay, Reference Compound X is used at a concentration that is equivalent to the Kd for the non-mutated bromodomain, which ensures that no binding at the mutated bromodomain is detected.” for “determined.”
Protein production: Recombinant Human Bromodomains [(BRD2 (1-473) (Y113A) and (Y386A), BRD3 (1-435) (Y73A) and (Y348A) BRD4 (1-477) (Y97A) and (Y390A) and BRDT (1-397) (Y66A) and (Y309A)] were expressed in E. coli cells (in pET15b vector for BRD2/3/4 and in pET28a vector for BRDT) with a 6-His tag at the N-terminal. The His-tagged Bromodomain pellet was resuspended in 50 mM HEPES (pH7.5), 300 mM NaCl, 10 mM imidazole & 1 μL/mL protease inhibitor cocktail and extracted from the E. coli cells using sonication and purified using a nickel sepharose high performance column, the proteins were washed and then eluted with a linear gradient of 0-500 mM imidazole with buffer 50 mM HEPES (pH7.5), 150 mM NaCl, 500 mM imidazole, over 20 column volumes. Final purification was completed by Superdex 200 prep grade size exclusion column. Purified protein was stored at −80° C. in 20 mM HEPES pH 7.5 and 100 mM NaCl. Protein identity was confirmed by peptide mass fingerprinting and predicted molecular weight confirmed by mass spectrometry.
For orientation: Polarisation of emitted light reports the rotation of a fluorescent probe.
As to `COc1ccc2c(c1)C(c1ccc(Cl)cc1)=N[C@@H](CC(=O)NCCCCCNC(=O)CCCCCC1(C)/C(=C/C=C/C=C/C3=[N+](CCCCS(=O)(=O)O)c4ccc(S(=O)(=O)O)cc4C3(C)C)N(CCCCS(=O)(=O)[O-])c3ccc(S(=O)(=O)O)cc31)c1nnc(C)n1-2` (stereo partly drawn) [Reference Compound X], the “affinities of the single mutated bromdomain tandem proteins” value is recorded as “equi-potent”.

Staying with this assay, now noted: double mutant tandem proteins in comparison to non mutated, wild type tandem BET proteins.
For the compound `COc1ccc2c(c1)C(c1ccc(Cl)cc1)=N[C@@H](CC(=O)NCCCCCNC(=O)CCCCCC1(C)/C(=C/C=C/C=C/C3=[N+](CCCCS(=O)(=O)O)c4ccc(S(=O)(=O)O)cc4C3(C)C)N(CCCCS(=O)(=O)[O-])c3ccc(S(=O)(=O)O)cc31)c1nnc(C)n1-2` (stereo partly drawn) [Reference Compound X], the “reduction in Kd” value was greater than 1000 fold.

The same assay, now with this note: single mutations of Tyrosine to Alanine.
Consider `COc1ccc2c(c1)C(c1ccc(Cl)cc1)=N[C@@H](CC(=O)NCCCCCNC(=O)CCCCCC1(C)/C(=C/C=C/C=C/C3=[N+](CCCCS(=O)(=O)O)c4ccc(S(=O)(=O)O)cc4C3(C)C)N(CCCCS(=O)(=O)[O-])c3ccc(S(=O)(=O)O)cc31)c1nnc(C)n1-2` (stereo partly drawn) [Reference Compound X], for which the “reduction of the Kd of the interaction between the mutated bromodomain and Reference Compound X” value was greater than 1000 fold.

The values above are taken from US20210346336A1, “FURAN DERIVATIVES AS BROMODOMAIN INHIBITORS” (GlaxoSmithKline Intellectual Property (No.2) Limited, priority 2018, published 2021).
